Measured values as given in paper PMC3433162 (Analytical chemistry, 2012).

How the values were obtained:
[1] = target: bovine carbonic anhydrase (BCA) (Bos taurus, UniProt P00921); assay: biochemical; type: binding
[2] = target: carbonic anhydrase; conditions: read-out: Kd or Ki; cited from earlier work

bovine carbonic anhydrase (BCA), sequence (P00921 whole entry): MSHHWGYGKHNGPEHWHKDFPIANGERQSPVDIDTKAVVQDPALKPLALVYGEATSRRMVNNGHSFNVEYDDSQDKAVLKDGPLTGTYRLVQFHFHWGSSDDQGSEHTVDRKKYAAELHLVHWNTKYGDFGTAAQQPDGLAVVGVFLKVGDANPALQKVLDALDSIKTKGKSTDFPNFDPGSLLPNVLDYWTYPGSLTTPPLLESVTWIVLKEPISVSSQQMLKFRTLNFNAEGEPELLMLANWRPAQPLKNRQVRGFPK

Kd [1] [µM]	Compound	Kd [2] [µM]
0.29	Cc1ccc(S(N)(=O)=O)cc1 [4-methylbenzene sulfonamide]	
	methane sulfonamide	70 to 320
